# Reference: paper PMC3961306, “Comparison of the Cancer Gene Targeting and Biochemical Selectivities of All Targeted Kinase Inhibitors Approved for Clinical Use” (PLoS ONE, 2014)
# Where two headings read alike, the source gives them in different places.
# Legend:
# [1] = tested on: forty-four human cancer cell lines; experiment: Cell proliferation assay (ATPlite, 72 hours) in the 44 cell line Oncolines panel; type: cell-based; settings: Homo sapiens
# [2] = molecular target: panel of more than 300 wild-type and mutant kinases (313 kinase panel) (Homo sapiens, UniProt P00519); experiment: Kinase profiling in a biochemical assay panel (mobility shift assays and ELISA), %-inhibition at 1 μM; selectivity entropy; settings: 1 µM
# [3] = molecular target: panel of more than 300 wild-type and mutant kinases (313 kinase panel) (Homo sapiens, UniProt P00533); experiment: as above; settings: kinase EGFR; compound at 1 μM
# [4] = molecular target: panel of more than 300 wild-type and mutant kinases (313 kinase panel) (Homo sapiens, UniProt P00533, L858R); experiment: as above; settings: kinase EGFR(L858R); compound at 1 μM
# [5] = molecular target: panel of more than 300 wild-type and mutant kinases (313 kinase panel) (Homo sapiens, UniProt P00533, L861Q); experiment: as above; settings: kinase EGFR(L861Q); compound at 1 μM
# [6] = molecular target: panel of more than 300 wild-type and mutant kinases (313 kinase panel) (Homo sapiens, UniProt P00533, T790M); experiment: as above; settings: kinase EGFR(T790M); compound at 1 μM
# [7] = molecular target: T1, panel of more than 300 wild-type and mutant kinases (313 kinase panel) (Homo sapiens, UniProt P00540); experiment: as above; settings: kinase MOS; 1 μM
# T1 sequence (P00540 1-346): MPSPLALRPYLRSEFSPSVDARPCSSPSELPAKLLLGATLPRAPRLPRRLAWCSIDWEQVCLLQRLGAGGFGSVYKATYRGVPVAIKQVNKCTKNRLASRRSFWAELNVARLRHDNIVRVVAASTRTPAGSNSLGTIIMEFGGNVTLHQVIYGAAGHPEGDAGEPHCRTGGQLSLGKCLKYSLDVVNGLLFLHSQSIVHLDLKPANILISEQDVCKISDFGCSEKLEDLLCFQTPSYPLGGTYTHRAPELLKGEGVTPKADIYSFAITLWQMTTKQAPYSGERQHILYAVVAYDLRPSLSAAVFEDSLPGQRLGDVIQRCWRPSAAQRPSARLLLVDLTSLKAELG
# [8] = molecular target: panel of more than 300 wild-type and mutant kinases (313 kinase panel) (Homo sapiens, UniProt P07947, T348I); experiment: as above; settings: 1 µM
# [9] = molecular target: panel of more than 300 wild-type and mutant kinases (313 kinase panel) (Homo sapiens, UniProt P11362, V561M); experiment: as above; settings: kinase FGFR1(V561M); compound at 1 μM
# [10] = molecular target: panel of more than 300 wild-type and mutant kinases (313 kinase panel) (Homo sapiens, UniProt P15056); experiment: as above; settings: kinase BRAF; 1 μM compound
# [11] = molecular target: panel of more than 300 wild-type and mutant kinases (313 kinase panel) (Homo sapiens, UniProt P35968); experiment: as above; settings: kinase KDR; compound at 1 μM
# [12] = molecular target: panel of more than 300 wild-type and mutant kinases (313 kinase panel) (Homo sapiens, UniProt P42684); experiment: as above; settings: kinase ARG; 1 μM compound
# [13] = molecular target: panel of more than 300 wild-type and mutant kinases (313 kinase panel) (Homo sapiens, UniProt P51451); experiment: as above; settings: kinase BLK; 1 μM compound
# [14] = molecular target: panel of more than 300 wild-type and mutant kinases (313 kinase panel) (Homo sapiens, UniProt P51617); experiment: as above; settings: kinase IRAK1; compound at 1 μM
smiles,measurement,setting,value
N#CC[C@H](C1CCCC1)n1cc(-c2ncnc3[nH]ccc23)cn1 [ruxolitinib],IC50,"[1]; 4-4 cell, read-out: cell panel IC50, J82",> 31.6 µM
same,IC50,"[1]; 4-4 cell, read-out: cell panel IC50, PA-1",26.9 µM
same,IC50,"[1]; 4-4 cell, read-out: cell panel IC50, SJCRH30",25.4 µM
same,IC50,"[1]; 4-4 cell, read-out: cell panel IC50, SR",4.44 µM
same,IC50,"[1]; 769-P, read-out: cell panel IC50, 769-P",18.4 µM
same,IC50,"[1]; 786-0, read-out: cell panel IC50, 786-0",> 31.6 µM
same,IC50,"[1]; A 172, read-out: cell panel IC50, A-172",31.5 µM
same,IC50,"[1]; A204, read-out: cell panel IC50, A-204",> 31.6 µM
same,IC50,"[1]; A498, read-out: cell panel IC50, A-498",> 31.6 µM
same,IC50,"[1]; A549, read-out: cell panel IC50, A-549",21.9 µM
same,IC50,"[1]; A-375, read-out: cell panel IC50, A375",> 31.6 µM
same,IC50,"[1]; A-427, read-out: cell panel IC50, A-427",11.7 µM
same,IC50,"[1]; ACHN, read-out: cell panel IC50, ACHN",> 31.6 µM
same,IC50,"[1]; AN3-CA, read-out: cell panel IC50, AN3 CA",9.88 µM
same,IC50,"[1]; AU565, read-out: cell panel IC50, AU-565",28.3 µM
same,IC50,"[1]; BT-20, read-out: cell panel IC50, BT-20",> 31.6 µM
same,IC50,"[1]; BT-549, read-out: cell panel IC50, BT-549",> 31.6 µM
same,IC50,"[1]; BXPC-3, read-out: cell panel IC50, BxPC-3",16.2 µM
same,IC50,"[1]; C-33-A, read-out: cell panel IC50, C-33 A",9.4 µM
same,IC50,"[1]; CAL-27, read-out: cell panel IC50, CAL 27",> 31.6 µM
same,IC50,"[1]; CCRF-CEM, read-out: cell panel IC50, CCRF-CEM",29 µM
same,IC50,"[1]; DLD-1, read-out: cell panel IC50, DLD-1",31.1 µM
same,IC50,"[1]; FaDu, read-out: cell panel IC50, FaDu",> 31.6 µM
same,IC50,"[1]; HCT-15, read-out: cell panel IC50, HCT-15",25.3 µM
same,IC50,"[1]; HCT-116, read-out: cell panel IC50, HCT-116",30 µM
same,IC50,"[1]; Hs-578T, read-out: cell panel IC50, Hs 578T",> 31.6 µM
same,IC50,"[1]; Jurkat E6.1, read-out: cell panel IC50, Jurkat E6.1",21.5 µM
same,IC50,"[1]; K562, read-out: cell panel IC50, K-562",26.4 µM
same,IC50,"[1]; LS174T, read-out: cell panel IC50, LS 174T",30.8 µM
same,IC50,"[1]; LoVo, read-out: cell panel IC50, LoVo",24.4 µM
same,IC50,"[1]; MG-63, read-out: cell panel IC50, MG-63",26.2 µM
same,IC50,"[1]; MOLT-4, read-out: cell panel IC50, MOLT-4",21.8 µM
same,IC50,"[1]; MeWo, read-out: cell panel IC50, MeWo",> 31.6 µM
same,IC50,"[1]; NCI-H82, read-out: cell panel IC50, NCI-H82",21 µM
same,IC50,"[1]; NCI-H460, read-out: cell panel IC50, NCI-H460",27 µM
same,IC50,"[1]; OVCAR-3, read-out: cell panel IC50, OVCAR-3",> 31.6 µM
same,IC50,"[1]; RPMI-7951, read-out: cell panel IC50, RPMI-7951",15.6 µM
same,IC50,"[1]; SHP77, read-out: cell panel IC50, SHP-77",31.2 µM
same,IC50,"[1]; SK-N-AS, read-out: cell panel IC50, SK-N-AS",21.1 µM
same,IC50,"[1]; SW48, read-out: cell panel IC50, SW48",19.5 µM
same,IC50,"[1]; SW480, read-out: cell panel IC50, SW480",> 31.6 µM
same,IC50,"[1]; SW-620, read-out: cell panel IC50, SW620",28.4 µM
same,IC50,"[1]; U2OS, read-out: cell panel IC50, U-2 OS",25.1 µM
same,IC50,"[1]; U-87 MG, 72 h, read-out: IC50 in cell proliferation assay (table S5 cellpanel data)",> 31.6 µM
same,"%-inhibition, ABL",[2],5%
same,%-inhibition of EGFR,[3],-0.278%
same,%-inhibition of EGFR(L858R),[4],-4%
same,%-inhibition of EGFR(L861Q),[5],-3.22%
same,%-inhibition of EGFR(T790M),[6],-8%
same,%-inhibition of MOS,[7],8%
same,%-inhibition of YES(T348I),[8],5%
same,%-inhibition of FGFR1(V561M),[9],50%
same,"%-inhibition, BRAF",[10],14%
same,%-inhibition of KDR,[11],6.52%
same,"%-inhibition, ARG",[12],6%
same,"%-inhibition, BLK",[13],-1%
same,%-inhibition of IRAK1,[14],50%
